Results from ChEMBL document CHEMBL5137024, “Discovery of novel coumarin-indole derivatives as tubulin polymerization inhibitors with potent anti-gastric cancer activities” (Eur J Med Chem, 2022).
Activity calls are given as the source filed them. No cut-off for these calls is given here.

How the values were obtained:
MGC-803 [1] = assay: Antitumor activity against human MGC-803 cells xenografted BALB/c nude mouse assessed as tumor growth inhibition at 15 mg/kg, ip administered once daily for 21 days; assay type: functional; details: MGC-803, 504 h, time 21 day, read-out: TGI
HGC-27 [2] = assay: Induction of apoptosis in human HGC-27 cells assessed as upregulation of DR5 level; assay type: functional, cell-based; details: dose 10-30 nM, DDE = dose-dependent effect
MGC-803 [3] = assay: Antitumor activity against human MGC-803 cells xenografted BALB/c nude mouse assessed as tumor growth inhibition at 30 mg/kg, ip administered once daily for 21 days; assay type: functional; details: MGC-803, 504 h, time 21 day, read-out: TGI
MGC-803 [4] = assay: Inhibition of p38 signalling pathway in human MGC-803 cells assessed as reduction in downstream substrate HSP-27 phosphorylation at 5 to 15 nM incubated for 48 hrs; assay type: cell-based; details: dose 5-15 nM
MGC-803 [5] = assay: Induction of apoptosis in human MGC-803 cells assessed as increase in Noxa level; assay type: functional, cell-based; details: dose 5-15 nM, DDE = dose-dependent effect
[6] = target: c-Jun N-terminal kinase, JNK (Homo sapiens) (UniProt P45983+P53779+P45984); assay: Inhibition of JNK signalling pathway in human MGC-803 cells assessed as reduction in JNK phosphorylation at 5 to 15 nM incubated for 48 hrs; assay type: cell-based; details: dose 5-15 nM
MGC-803 [7] = assay: Induction of apoptosis in human MGC-803 cells assessed as decrease in XIAP level; assay type: functional, cell-based; details: dose 5-15 nM, DDE = dose-dependent effect
PC-3 = assay: Antiproliferative activity against human PC-3 cells assessed as reduction in cell viability incubated for 48 hrs by MTT assay; assay type: functional, cell-based; details: PC-3, 48 h
HGC-27 [8] = assay: Inhibition of ERK signalling pathway in human HGC-27 cells assessed as downregulation of c-Raf phosphorylation at 10 to 30 nM incubated for 48 hrs; assay type: cell-based; details: dose 10-30 nM
HGC-27 [9] = assay: Inhibition of ERK signalling pathway in human HGC-27 cells assessed as downregulation of MEK1/2 phosphorylation at 10 to 30 nM incubated for 48 hrs; assay type: cell-based; details: dose 10-30 nM
MGC-803 [10] = assay: Downregulation of phosphorylated ATF-2 expression in human MGC-803 cells incubated for 48 hrs; assay type: functional, cell-based; details: dose 5-15 nM, DDE = dose-dependent effect
HGC-27 [11] = assay: Antiproliferative activity against human HGC-27 cells assessed as reduction in cell viability at 15 to 30 nM by MTT assay; assay type: functional, cell-based; details: dose 15-30 nM, time 12-48 hrs, TDE = time-dependent effect
HGC-27 [12] = assay: Inhibition of ERK signalling pathway in human HGC-27 cells assessed as reduction in downstream substrate p90RSK phosphorylation at 10 to 30 nM incubated for 48 hrs; assay type: cell-based; details: dose 10-30 nM
HGC-27 [13] = assay: Induction of apoptosis in human HGC-27 cells assessed as upregulation of cleavage caspase 8 level; assay type: functional, cell-based; details: dose 10-30 nM, DDE = dose-dependent effect
MGC-803 [14] = assay: Inhibition of ERK signalling pathway in human MGC-803 cells assessed as downregulation of c-Raf phosphorylation at 5 to 15 nM incubated for 48 hrs; assay type: cell-based; details: dose 5-15 nM
MGC-803 [15] = assay: Downregulation of ATF4 expression in human MGC-803 cells incubated for 48 hrs; assay type: functional, cell-based; details: dose 5-15 nM, DDE = dose-dependent effect
HGC-27 [16] = assay: Downregulation of ATF4 expression in human HGC-27 cells incubated for 48 hrs; assay type: functional, cell-based; details: dose 10-30 nM, DDE = dose-dependent effect
MGC-803 [17] = assay: Induction of apoptosis in human MGC-803 cells assessed as nuclear concentration at 5 to 15 nM incubated for 48 hrs by DAPI staining based analysis; assay type: functional, cell-based; details: dose 5-15 nM
HGC-27 [18] = assay: Induction of cell cycle arrest in human HGC-27 cells assessed as accumulation of cells at G2/M phase at 15 nM incubated for 48 hrs by propidium iodide staining based flow cytometry analysis (reference value: 11%); assay type: functional
[19] = Induction of mitochondria mediated intrinsic apoptosis in human HGC-27 cells assessed as late apoptotic cells at 20 nM measured after 48 hrs by flow cytometry analysis (reference value: 93.6%); assay type: functional
MGC-803 [20] = assay: Downregulation of cdc2 phosphorylation at Thr14 residue in human MGC-803 cells at 5 to 15 nM incubated for 48 hrs; assay type: functional, cell-based; details: dose 5-15 nM
SK-N-SH = assay: Antiproliferative activity against human SK-N-SH cells assessed as reduction in cell viability incubated for 48 hrs by MTT assay; assay type: functional, cell-based
HGC-27 [21] = assay: Downregulation of MMP-9 expression in human HGC-27 cells incubated for 48 hrs; assay type: functional, cell-based; details: dose 10-30 nM, DDE = dose-dependent effect
MGC-803 [22] = assay: Inhibition of p38 signalling pathway in human MGC-803 cells assessed as reduction in downstream substrate MAPKAPK2 phosphorylation at 5 to 15 nM incubated for 48 hrs; assay type: cell-based; details: dose 5-15 nM
[23] = Induction of mitochondria mediated intrinsic apoptosis in human MGC-803 cells assessed as early apoptotic cells at 15 nM measured after 48 hrs by flow cytometry analysis (Rvb= 1.6%); assay type: functional
HGC-27 [24] = assay: Induction of apoptosis in human HGC-27 cells assessed as decrease in cell density at 10 to 30 nM incubated for 48 hrs by bright field imaging analysis; assay type: functional, cell-based; details: dose 10-30 nM
[25] = Toxicity in BALB/c nude mouse xenografted with human MGC-803 cells assessed as pathological changes in kidney at 15 to 30 mg/kg, ip administered once daily for 21 days by Hematoxyin-eosin staining based analysis; assay type: organism-based; details: in vivo, 504 h, dose 15-30 mg/kg, time 21 day
HGC-27 [26] = assay: Induction of DNA damage in human HGC-27 cells by comet assay; assay type: functional, cell-based; details: dose 10-30 nM, DDE = dose-dependent effect
[27] = Induction of mitochondria mediated intrinsic apoptosis in human MGC-803 cells assessed as early apoptotic cells at 5 nM measured after 48 hrs by flow cytometry analysis (Rvb= 1.6%); assay type: functional
MGC-803 [28] = assay: Inhibition of ERK signalling pathway in human MGC-803 cells assessed as downregulation of MEK1/2 phosphorylation at 5 to 15 nM incubated for 48 hrs; assay type: cell-based; details: dose 5-15 nM
A549 = assay: Antiproliferative activity against human A549 cells assessed as reduction in cell viability incubated for 48 hrs by MTT assay; assay type: functional, cell-based; details: A549, 48 h
DU-145 = assay: Antiproliferative activity against human DU-145 cells assessed as reduction in cell viability incubated for 48 hrs by MTT assay; assay type: functional, cell-based; details: DU-145, 48 h
HGC-27 [29] = assay: Induction of apoptosis in human HGC-27 cells assessed as increase in Noxa level; assay type: functional, cell-based; details: dose 10-30 nM, DDE = dose-dependent effect
HGC-27 [30] = assay: Antiproliferative activity against human HGC-27 cells assessed as inhibition of cell growth at 10 to 30 nM incubated for 60 hrs; assay type: functional, cell-based; details: dose 10-30 nM
[31] = Toxicity in BALB/c nude mouse xenografted with human MGC-803 cells assessed as pathological changes in lung at 15 to 30 mg/kg, ip administered once daily for 21 days by Hematoxyin-eosin staining based analysis; assay type: organism-based; details: in vivo, 504 h, dose 15-30 mg/kg, time 21 day
MGC-803 [32] = assay: Inhibition of p38 signalling pathway in human MGC-803 cells assessed as reduction in p38 phosphorylation at 5 to 15 nM incubated for 48 hrs; assay type: cell-based; details: dose 5-15 nM
HGC-27 [33] = assay: Induction of apoptosis in human HGC-27 cells assessed as increase in cleavage substrate PARP level; assay type: functional, cell-based; details: dose 10-30 nM, DDE = dose-dependent effect
MGC-803 [34] = assay: Antiproliferative activity against human MGC-803 cells assessed as reduction in cell viability at 15 to 30 nM by MTT assay; assay type: functional, cell-based; details: dose 15-30 nM, time 12-48 hrs, TDE = time-dependent effect
MGC-803 [35] = assay: Induction of DNA damage in human MGC-803 cells by comet assay; assay type: functional, cell-based; details: dose 5-15 nM, DDE = dose-dependent effect
HGC-27 [36] = assay: Induction of apoptosis in human HGC-27 cells assessed as nuclear fragmentation at 10 to 30 nM incubated for 48 hrs by DAPI staining based analysis; assay type: functional, cell-based; details: dose 10-30 nM

For `CN(c1ccc2c(ccn2C)c1)c1cc(=O)oc2ccccc12`, the inhibition in vivo at 15 mg/kg (MGC-803 [1]) was 70%, the Activity (HGC-27 [2]) was “Dde” and the inhibition in vivo at 30 mg/kg (MGC-803 [3]) was 80%. The inhibition (MGC-803 [4]) was “Active”, the Activity (MGC-803 [5]) was “Dde” and the inhibition [6] was “Active”. For the same molecule, the Activity (MGC-803 [7]) was “Dde”, the IC50 (PC-3) was 34.9 nM and the inhibition (HGC-27 [8]) was “Active”. The inhibition (HGC-27 [9]) was “Active”, the Activity (MGC-803 [10]) was “Dde” and the Activity (HGC-27 [11]) was “Tde”. The inhibition (HGC-27 [12]) was “Active”, the Activity (HGC-27 [13]) was “Dde” and the inhibition (MGC-803 [14]) was “Active”. For the same molecule, the Activity (MGC-803 [15]) was “Dde”, the Activity (HGC-27 [16]) was “Dde” and the Activity (MGC-803 [17]) was “Active”. For the same molecule, the Activity (HGC-27 [18]) was 85%, the Activity [19] was 78.3% and the Activity (MGC-803 [20]) was “Active”. For the same molecule, the IC50 (SK-N-SH) was 59.6 nM, the Activity (HGC-27 [21]) was “Dde” and the inhibition (MGC-803 [22]) was “Active”. For the same molecule, the Activity [23] was 23.6%, the Activity (HGC-27 [24]) was “Active” and the Activity [25] was “Non-Toxic”. For the same molecule, the Activity (HGC-27 [26]) was “Dde”, the Activity [27] was 1.8% and the inhibition (MGC-803 [28]) was “Active”. For the same molecule, the IC50 (A549) was 59.3 nM, the IC50 (DU-145) was 74 nM and the Activity (HGC-27 [29]) was “Dde”. For the same molecule, the inhibition (HGC-27 [30]) was “Active”, the Activity [31] was “Non-Toxic” and the inhibition (MGC-803 [32]) was “Active”. The Activity (HGC-27 [33]) was “Dde”, the Activity (MGC-803 [34]) was “Tde” and the Activity (MGC-803 [35]) was “Dde”. For the same molecule, the Activity (HGC-27 [36]) was “Active”.
